The source of these data is patent publication US10336730B2, “Substituted glycine derived FXIA inhibitors” (BRISTOL-MYERS SQUIBB COMPANY, priority 2015, dated 2019).

Usually Ki stands for a measure of affinity in units of concentration, obtained from inhibition or displacement. Low values mean tighter binding, high ones weaker binding.

Assay type in all cases: biochemical
The target of test [1] is T1, purified human plasma kallikrein (Homo sapiens, UniProt P03952).
T1 construct: purchased Enzyme Research Laboratories
T1 sequence (P03952 391-638 limits assumed): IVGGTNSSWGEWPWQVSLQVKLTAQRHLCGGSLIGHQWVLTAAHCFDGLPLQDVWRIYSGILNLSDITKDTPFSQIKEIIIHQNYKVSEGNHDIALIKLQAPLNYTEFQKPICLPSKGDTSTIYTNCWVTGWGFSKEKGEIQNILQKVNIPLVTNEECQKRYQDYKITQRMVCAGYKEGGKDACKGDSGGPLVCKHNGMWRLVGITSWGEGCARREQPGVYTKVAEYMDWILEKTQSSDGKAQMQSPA
T1 sequence (P03952 20-390 partner limits assumed): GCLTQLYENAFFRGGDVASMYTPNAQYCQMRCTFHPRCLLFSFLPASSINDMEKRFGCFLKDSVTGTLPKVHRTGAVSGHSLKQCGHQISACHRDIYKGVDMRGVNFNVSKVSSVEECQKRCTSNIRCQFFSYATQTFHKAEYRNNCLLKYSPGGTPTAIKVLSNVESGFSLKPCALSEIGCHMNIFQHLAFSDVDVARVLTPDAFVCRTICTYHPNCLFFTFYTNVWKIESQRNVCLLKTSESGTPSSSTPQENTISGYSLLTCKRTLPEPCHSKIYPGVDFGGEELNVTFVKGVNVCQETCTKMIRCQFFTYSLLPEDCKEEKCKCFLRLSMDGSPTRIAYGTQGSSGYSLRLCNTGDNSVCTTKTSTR
In words: Plasma kallikrein enzyme inhibition assay (chromogenic substrate S-2302), Ki. Particulars: substrate S-2302, pH 7.5. On the procedure: The effectiveness of compounds of the present invention as inhibitors of the coagulation Factors XIa, VIIa, IXa, Xa, XIIa, plasma kallikrein, thrombin, chemytrypsin or trypsin can be determined using a relevant purified serine protease, respectively, and an appropriate synthetic substrate. The rate of hydrolysis of the chromogenic or fluorogenic substrate by the relevant serine protease was measured both in the absence and presence of compounds of the present invention. […] A decrease in the rate of absorbance or fluorescence change in the presence of inhibitor is indicative of enzyme inhibition. Such methods are known to one skilled in the art. The results of this assay are expressed as the inhibitory constant, Ki.
Plasma kallikrein determinations were made in 0.1 M sodium phosphate buffer at a pH of 7.5 containing 0.1-0.2 M sodium chloride and 0.5% PEG 8000. Determinations were made using purified human plasma kallikrein (Enzyme Research Laboratories) at a final assay concentration of […] and the synthetic substrate S-2302 (H-(D)-Pro-Phe-Arg-pNA; CHROMOGENIX®) at a concentration of 0.00008-0.0004 M.
Values of Ki were determined by allowing the protease to react with the substrate in the presence of the inhibitor. Reactions were allowed to go for periods of 20-180 minutes (depending on the protease) and the velocities (rate of absorbance or fluorescence change versus time) were measured. The following relationships were used to calculate Ki values: (Vmax*S)/(Km+S) (vo−vs)/vs=I/(Ki*(1+S/Km)) for a competitive inhibitor with one binding site; or vs/vo=A+(B−A)/(1+(IC50/(I)^n)); and Ki=IC50/(1+S/Km) for a competitive inhibitor where: […]

Test [2] addresses T2, purified human Factor XIa (Homo sapiens, UniProt P03951).
T2 construct: purchased Haematologic Technologies
In words: Factor XIa enzyme inhibition assay (chromogenic substrate S-2366), Ki. Particulars: substrate S-2366, pH 7.4. Summed up:
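Purified human Factor XIa ([…] final) with chromogenic substrate S-2366 (0.0002-0.001 M) in 50 mM HEPES pH 7.4, 145 mM NaCl, 5 mM KCl, 0.1% PEG 8000. Velocities measured over 20-180 minutes with and without inhibitor; Ki derived assuming competitive inhibition, e.g. Ki=IC50/(1+S/Km).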

Test [3] deals with citrated normal human plasma. The test is described as follows: Activated Partial Thromboplastin Time (aPTT) plasma clotting assay. The note with it: inhibitor concentration required to increase the clotting time by 1.5 times. An excerpt:
The effectiveness of compounds of the present invention as inhibitors of coagulation can be determined using a standard or modified clotting assay. An increase in the plasma clotting time in the presence of inhibitor is indicative of anticoagulation. Relative clotting time is the clotting time in the presence of an inhibitor divided by the clotting time in the absence of an inhibitor. The results of this assay may be expressed as IC1.5× or IC2×, the inhibitor concentration required to increase the clotting time by 1.5 times or 2 times, respectively, relative to the clotting time in the absence of the inhibitor. The IC1.5× or IC2× is found by linear interpolation from relative clotting time versus inhibitor concentration plots using inhibitor concentrations that span the IC1.5× or IC2×.
Clotting times are determined using citrated normal human plasma as well as plasma obtained from a number of laboratory animal species (e.g., rat, or rabbit). A compound is diluted into plasma beginning with a 10 mM DMSO stock solution. The final concentration of DMSO is less than 2%. Plasma clotting assays are performed in an automated coagulation analyzer (Sysmex, Dade-Behring, Illinois). Similarly, clotting times can be determined from laboratory animal species or humans dosed with compounds of the invention.
Activated Partial Thromboplastin Time (aPTT) is determined using ACTIN® FSL (Dade-Behring, Illinois) following the directions in the package insert. Plasma (0.05 mL) is warmed to 37° C. for 1 minute. ACTIN® FSL (0.05 mL) is added to the plasma and incubated for an additional 2 to 5 minutes. Calcium chloride (25 mM, 0.05 mL) is added to the reaction to initiate coagulation. The clotting time is the time in seconds from the moment calcium chloride is added until a clot is detected.

T2 sequence (P03951 388-625 limits assumed): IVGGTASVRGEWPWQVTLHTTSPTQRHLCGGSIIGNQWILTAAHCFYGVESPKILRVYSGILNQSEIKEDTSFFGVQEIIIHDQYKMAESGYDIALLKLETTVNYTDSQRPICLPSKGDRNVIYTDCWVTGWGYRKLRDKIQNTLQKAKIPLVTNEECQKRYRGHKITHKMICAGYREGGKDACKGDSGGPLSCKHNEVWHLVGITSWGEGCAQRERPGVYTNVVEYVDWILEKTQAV
T2 sequence (P03951 19-387 partner limits assumed): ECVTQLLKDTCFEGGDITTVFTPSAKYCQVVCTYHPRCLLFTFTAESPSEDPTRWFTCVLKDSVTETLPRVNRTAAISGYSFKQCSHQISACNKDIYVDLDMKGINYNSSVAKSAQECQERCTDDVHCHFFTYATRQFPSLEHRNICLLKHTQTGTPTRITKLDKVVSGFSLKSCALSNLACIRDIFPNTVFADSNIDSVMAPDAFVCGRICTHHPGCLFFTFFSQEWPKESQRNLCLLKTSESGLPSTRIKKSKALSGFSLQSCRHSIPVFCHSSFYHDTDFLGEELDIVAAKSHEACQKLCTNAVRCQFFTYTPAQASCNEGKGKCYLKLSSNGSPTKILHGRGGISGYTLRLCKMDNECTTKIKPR

Turning to `O=C(O)Cn1cc(NC(=O)[C@H](Cc2ccccc2)n2cnc(-c3cc(Cl)ccc3-n3cc(Cl)nn3)cc2=O)cn1` [Example 11, 2-{4-[(2S)-2-{4-[5-Chloro-2-(4-chloro-1H-1,2,3-triazol-1-yl)phenyl]-6-oxo-1,6-dihydropyrimidin-1-yl}-3-phenyl-propanamido]-1H-pyrazol-1-yl}acetic Acid], the results for the Ki in test [1] and in test [2] were 2100 nM and 56.4 nM, respectively.

Consider `O=C(O)c1ccc(NC(=O)[C@H](Cc2ccccc2)n2cnc(-c3cc(Cl)ccc3-n3cc(C(F)(F)F)nn3)cc2=O)cc1` [Example 14, (S)-4-(2-(4-(5-chloro-2-(4-(trifluoromethyl)-1H-1,2,3-triazol-1-yl)phenyl)-6-oxopyrimidin-1(6H)-yl)-3-phenylpropanamido)benzoic Acid], for which the Ki worked out at 239 nM in test [1] and 3.1 nM in test [2]. Also, the “aPTT (IC1.5×)” value in test [3] is 1.85 µM.

Turning to `O=C(Nc1ccc2nccnc2c1)[C@H](Cc1ccccc1)n1cnc(-c2cc(Cl)ccc2-n2cc(Cl)nn2)cc1=O` [Example 30, (S)-2-(4-(5-chloro-2-(4-chloro-1H-1,2,3-triazol-1-yl)phenyl)-6-oxopyrimidin-1(6H)-yl)-3-phenyl-N-(quinoxalin-6-yl)propanamide], the Ki in test [2] turned out to be 6.44 nM. In test [3], the “aPTT (IC1.5×)” value is 15.2 µM.

Turning to `O=C(Nc1ccc2cn[nH]c2c1)[C@H](Cc1ccccc1)n1cnc(-c2cc(Cl)ccc2-n2cc(Cl)nn2)cc1=O` [Example 17, (S)-2-(4-(5-chloro-2-(4-chloro-1H-1,2,3-triazol-1-yl)phenyl)-6-oxopyrimidin-1(6H)-yl)-N-(1H-indazol-6-yl)-3-phenylpropanamide], the values for the Ki in test [1] and in test [2] were 166 nM and 16 nM, respectively. Further, the “aPTT (IC1.5×)” value in test [3] is 17.6 µM.

With `O=C(Nc1ccncc1)[C@H](Cc1ccccc1)n1cnc(-c2cc(Cl)ccc2-n2cc(Cl)nn2)cc1=O` [Example 13, (S)-2-(4-(5-chloro-2-(4-chloro-1H-1,2,3-triazol-1-yl)phenyl)-6-oxopyrimidin-1(6H)-yl)-3-phenyl-N-(pyridin-4-yl)propanamide], the Ki in test [1] came out at 984 nM; in test [2] it was 43.6 nM.

In test [2], `O=C(O)c1ccc(NC(=O)[C@H](Cc2ccccc2)N2CCC(c3cc(Cl)ccc3-n3cc(Cl)nn3)=CC2=O)cc1` [Example 142, (S)-4-(2-(4-(5-chloro-2-(4-chloro-1H-1,2,3-triazol-1-yl)phenyl)-6-oxo-3,6-dihydropyridin-1(2H)-yl)-3-phenylpropanamido)benzoic Acid] had a Ki of 1.73 nM. Also, the “aPTT (IC1.5×)” value in test [3] was found to be 2.39 µM.

As to `O=C(Nc1ccccc1)[C@H](Cc1ccccc1)n1cnc(-c2cc(Cl)ccc2-n2cc(Cl)nn2)cc1=O` [Example 12, (S)-2-(4-(5-chloro-2-(4-chloro-1H-1,2,3-triazol-1-yl)phenyl)-6-oxopyrimidin-1(6H)-yl)-N,3-diphenylpropanamide], the Ki in test [1] was determined as 1480 nM; in test [2], 35.7 nM.

In test [2], `O=C(Nc1ccc2c(=O)[nH]ccc2c1)[C@H](Cc1ccccc1)n1cnc(-c2cc(Cl)ccc2-n2cc(Cl)nn2)cc1=O` [Example 96, (S)-2-(4-(5-chloro-2-(4-chloro-1H-1,2,3-triazol-1-yl)phenyl)-6-oxopyrimidin-1(6H)-yl)-N-(1-oxo-1,2-dihydroisoquinolin-6-yl)-3-phenylpropanamide] gave a Ki of 19.8 nM. For the same compound, the “aPTT (IC1.5×)” value in test [3] was determined as 13.6 µM.

Take `O=C(O)c1ccc(NC(=O)[C@H](Cc2ccccc2)n2ncc(-c3cc(Cl)ccc3-n3cc(C(F)(F)F)nn3)cc2=O)cc1` [Example 143, 4-[(2S)-2-(4-{5-Chloro-2-[4-(trifluoromethyl)-1H-1,2,3-triazol-1-yl]phenyl}-6-oxo-1,6-dihydropyridazin-1-yl)-3-phenyl-propanamido]benzoic Acid]: the Ki turned out to be 569 nM in test [1] and 5.5 nM in test [2].

`COC(=O)Cn1cc(NC(=O)[C@H](Cc2ccccc2)n2cnc(-c3cc(Cl)ccc3-n3cc(Cl)nn3)cc2=O)cn1` [Example 10, Methyl 2-{4-[(2S)-2-{4-[5-chloro-2-(4-chloro-1H-1,2,3-triazol-1-yl)phenyl]-6-oxo-1,6-dihydropyrimidin-1-yl}-3-phenylpropanamido]-1H-pyrazol-1-yl}acetate]: the Ki in test [1] came out at 3860 nM; in test [2] it was 104 nM.

Consider `O=C1Cc2cc(NC(=O)[C@H](Cc3ccccc3)n3cnc(-c4cc(Cl)ccc4-n4cc(Cl)nn4)cc3=O)ccc2N1` [Example 23, (S)-2-(4-(5-chloro-2-(4-chloro-1H-1,2,3-triazol-1-yl)phenyl)-6-oxopyrimidin-1(6H)-yl)-N-(2-oxoindolin-5-yl)-3-phenylpropanamide], for which affinity in test [2] was put at a Ki of 6.6 nM. The “aPTT (IC1.5×)” value in test [3] was 8.0 µM.

Consider `O=C(Nc1ccc2c(c1)OCO2)[C@H](Cc1ccccc1)n1cnc(-c2cc(Cl)ccc2-n2cc(Cl)nn2)cc1=O` [Example 18, (S)—N-(benzo[d][1,3]dioxol-5-yl)-2-(4-(5-chloro-2-(4-chloro-1H-1,2,3-triazol-1-yl)phenyl)-6-oxopyrimidin-1(6H)-yl)-3-phenylpropanamide], for which the figures for the Ki in test [1] and in test [2] were 1480 nM and 99.4 nM, respectively.

For the compound `O=C(Nc1ccc2[nH]c(C(F)(F)F)nc2c1)[C@H](Cc1ccccc1)n1cnc(-c2cc(Cl)ccc2-n2cc(Cl)nn2)cc1=O` [Example 16, (S)-2-(4-(5-chloro-2-(4-chloro-1H-1,2,3-triazol-1-yl)phenyl)-6-oxopyrimidin-1(6H)-yl)-3-phenyl-N-(2-(trifluoromethyl)-1H-benzo[d]imidazol-5-yl)propanamide], the figures for the inhibition constant Ki in test [1] and in test [2] were 257 nM and 26 nM, respectively.

On to `N#Cc1ccc(Cl)c(F)c1C1=CC(=O)N(C(Cc2ccccc2)C(=O)Nc2ccc(C(=O)O)cc2)CC1` (stereo not shown) [Example 130, 4-{2-[4-(3-Chloro-6-cyano-2-fluorophenyl)-6-oxo-1,2,3,6-tetrahydropyridin-1-yl]-3-phenylpropanamido}benzoic Acid], for which, in test [2], the affinity, expressed as Ki, was 12.8 nM. Besides, the “aPTT (IC1.5×)” value in test [3] worked out at 17.5 µM.

As to `O=C(O)c1ccc(NC(=O)[C@H](Cc2ccccc2)n2ncc(-c3c(F)ccc(Cl)c3F)cc2=O)cc1` [Example 144, 4-[(2S)-2-[4-(3-Chloro-2,6-difluorophenyl)-6-oxo-1,6-dihydropyridazin-1-yl]-3-phenylpropanamido]benzoic Acid], the Ki was 6900 nM in test [1] and 1030 nM in test [2].

`O=C(O)c1ccc(NC(=O)[C@H](Cc2ccc(NC(=O)C3CC3)cc2)N2CCC(c3cc(Cl)ccc3-n3cc(Cl)nn3)=CC2=O)cc1` [Example 141, (S)-4-(2-(4-(5-chloro-2-(4-chloro-1H-1,2,3-triazol-1-yl)phenyl)-6-oxo-3,6-dihydropyridin-1(2H)-yl)-3-(4-(cyclopropanecarboxamido)phenyl)propanamido)benzoic Acid]: the affinity in test [2] corresponds to a Ki of 0.92 nM. Further, the “aPTT (IC1.5×)” value in test [3] was found to be 2.05 µM.

For the compound `O=C(Nc1ccc(-n2ccnc2)cc1)[C@H](Cc1ccccc1)n1cnc(-c2cc(Cl)ccc2-n2cc(Cl)nn2)cc1=O` [Example 94, (S)-N-(4-(1H-imidazol-1-yl)phenyl)-2-(4-(5-chloro-2-(4-chloro-1H-1,2,3-triazol-1-yl)phenyl)-6-oxopyrimidin-1(6H)-yl)-3-phenylpropanamide], in test [2], the affinity, expressed as Ki, was 25.7 nM.

Take `O=C(NCc1ccccc1)[C@H](Cc1ccccc1)n1cnc(-c2cc(Cl)ccc2-n2cc(Cl)nn2)cc1=O` [Example 19, (S)—N-benzyl-2-(4-(5-chloro-2-(4-chloro-1H-1,2,3-triazol-1-yl)phenyl)-6-oxopyrimidin-1(6H)-yl)-3-phenylpropanamide]: the Ki in test [1] amounted to 13300 nM; in test [2], 357 nM.
